pIC50: −log10 of the molar value. Where two headings read alike, the source gives them in different places.
Legend:
[1] = target: Cys242 in human PIK3CA (157-299) (Homo sapiens (Human), UniProt P42336); assay: Covalent modification assay using MALDI-TOF MS; format: biochemical; details: 4 h reaction time point; 1 μM protein target, 1:5 protein to compound ratio (compounds 853-1279)
Outline: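 PIK3CA (157-299), 3.33 or 1 μM in 20 mM HEPES, 150 mM NaCl, 2 mM MgCl2, pH 7.3, was incubated with compound at room temperature in the dark for 15 min, 30 min, 2 h or 4 h. Linear MALDI-TOF read-out; % modification = adduct peak height over summed heights of all protein species.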

pAKT in BT474 cells = assay: Cell-based pAKT HTRF assay in BT474 cells; details: BT474 cells, 4 hr incubation, Compounds 1000-1279, read-out: pAKT inhibition IC50 in BT474 cells
Outline: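 Compound titration: 3 μM downward in 3-fold steps, nine points, 4 hr on cells. Detection: lysis, then d2 plus Eu Cryptate antibody mix, room-temperature incubation of 4–24 h, and time-resolved fluorescence read at 615 nm.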

Sequence of Cys242 in human PIK3CA (157-299) (P42336 157-299): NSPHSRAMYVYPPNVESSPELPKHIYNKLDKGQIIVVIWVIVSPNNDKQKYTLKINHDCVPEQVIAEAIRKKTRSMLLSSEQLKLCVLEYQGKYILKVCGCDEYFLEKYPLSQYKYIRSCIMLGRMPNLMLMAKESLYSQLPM

SMILES	pIC50 (pAKT in BT474 cells)	pIC50 (pAKT in BT474 cells; Homo sapiens, BT-474)	% of modification [1]
C=CC(=O)N1CCn2nc(-c3nc(-c4ccc5c(cnn5C)c4)c4ccsc4c3-c3c(F)cc(F)cc3OC)cc2C1C (centres unmarked) [Compound 1111]	6.00 to 7.00		C (25%≤percent of modification <50%)
C=CC(=O)N1CCn2nc(-c3nc(-c4ccc5c(c4)CN(C)CC54CC4)c4ccsc4c3-c3c(F)cc(F)cc3OCCOC)cc2C1C (centres unmarked) [Compound 1113]	> 7.00		A (percent of modification of PIK3CA protein ≥75%)
C=CC(=O)N1CCn2nc(-c3nc(-c4ccc5c(cnn5C)c4)c4ccsc4c3-c3c(F)cc(F)cc3OC)cc2C1C (centres unmarked) [Compound 1115]	> 7.00		A (percent of modification of PIK3CA protein ≥75%)
C=CC(=O)N1CCn2nc(-c3nc(-c4ccc5c(c4)C(=O)NC5)c4ccsc4c3-c3c(F)cc(F)cc3OC)cc2C1C (centres unmarked) [Compound 1117]	> 7.00		A (percent of modification of PIK3CA protein ≥75%)
C=CC(=O)N1CCn2nc(-c3nc(-c4ccc5c(c4)CNC(=O)C54CC4)c4ccsc4c3-c3c(F)cc(F)cc3OCCO)cc2C1C (centres unmarked) [Compound 1119]	> 7.00		A (percent of modification of PIK3CA protein ≥75%)
C=CC(=O)N1CCn2nc(-c3nc(-c4ccc5c(c4)CCN(CC(F)F)CC5)c4ccsc4c3-c3c(F)cc(F)cc3OCCOC)cc2C1C (centres unmarked) [Compound 1122]	> 7.00		A (percent of modification of PIK3CA protein ≥75%)
C=CC(=O)N1CCn2nc(-c3nc(-c4ccc5c(cnn5C)c4)c4ccsc4c3-c3c(F)cc(F)cc3OCC(C)(C)O)cc2C1C (centres unmarked) [Compound 1125]	6.00 to 7.00		A (percent of modification of PIK3CA protein ≥75%)
C=CC(=O)N1CCn2nc(-c3nc(-c4ccc5nn(C)cc5c4)c4ccsc4c3-c3c(F)cc(F)cc3OCC(C)(C)O)cc2[C@H]1C [Compound 1129]	> 7.00		A (percent of modification of PIK3CA protein ≥75%)
C=CC(=O)N1CCn2nc(-c3nc(-c4ccc5c(c4)C(=O)NC5)c4ccsc4c3-c3c(F)cc(F)cc3OCC(C)(C)O)cc2[C@H]1C [Compound 1130]	> 7.00		A (percent of modification of PIK3CA protein ≥75%)
C=CC(=O)N1CCn2nc(-c3nc(-c4ccc5c(c4)NC(=O)CN(C)C5)c4ccsc4c3-c3c(F)cc(F)cc3OCCOC)cc2[C@H]1C [Compound 1132, 8-((S)-6-((R)-5-acryloyl-4-methyl-4,5,6,7-tetrahydropyrazolo[1,5-a]pyrazin-2-yl)-7-(2,4-difluoro-6-(2-methoxyethoxy)phenyl)thieno[3,2-c]pyridin-4-yl)-4-methyl-1,3,4,5-tetrahydro-2H-benzo[e][1,4]diazepin-2-one]	> 7.00		A (percent of modification of PIK3CA protein ≥75%)
C=CC(=O)N1CCn2nc(-c3nc(-c4ccc5c(c4)CN(C)C(=O)C54CC4)c4ccsc4c3-c3c(F)cc(F)cc3OCCO)cc2[C@H]1C [Compound 1133]	> 7.00		A (percent of modification of PIK3CA protein ≥75%)
C=CC(=O)N1CCn2nc(-c3nc(-c4ccc(C5(C(=O)NC)CC5)cc4)c4ccsc4c3-c3c(F)cc(F)cc3OCCO)cc2[C@H]1C [Compound 1135]	> 7.00		A (percent of modification of PIK3CA protein ≥75%)
C=CC(=O)N1CCn2nc(-c3nc(-c4ccc5c(c4)CN(C)CC5)c4ccsc4c3-c3c(F)cc(F)cc3OCCO)cc2[C@H]1C [Compound 1136]	> 7.00		A (percent of modification of PIK3CA protein ≥75%)
C=CC(=O)N1CCn2nc(-c3nc(-c4ccc5c(c4)CNC(=O)C5)c4ccsc4c3-c3c(F)cc(F)cc3OCC(C)(C)O)cc2C1C (centres unmarked) [Compound 1139]	> 7.00		A (percent of modification of PIK3CA protein ≥75%)
C=CC(=O)N1CCn2nc(-c3nc(-c4cncc(CN(C)C)c4)c4ccsc4c3-c3c(F)cc(F)cc3OCCOC)cc2C1C (centres unmarked) [Compound 1141]	> 7.00		A (percent of modification of PIK3CA protein ≥75%)
C=CC(=O)N1CCn2nc(-c3nc(-c4cccc(C(=O)N5CC(N(C)C)C5)c4)c4ccsc4c3-c3c(F)cc(F)cc3OCCOC)cc2C1C (centres unmarked) [Compound 1142]	> 7.00		A (percent of modification of PIK3CA protein ≥75%)
C=CC(=O)N1CCn2nc(-c3nc(-c4ccc(C5(C(=O)NC6CN(C)C6)CC5)cc4)c4ccsc4c3-c3c(F)cc(F)cc3OCCOC)cc2C1C (centres unmarked) [Compound 1157]	6.00 to 7.00		A (percent of modification of PIK3CA protein ≥75%)
C=CC(=O)N1CCn2nc(-c3nc(-c4cnc5c(c4)CN(CCCF)CC5)c4ccsc4c3-c3c(F)cc(F)cc3OCCOC)cc2C1C (centres unmarked) [Compound 1158]	> 7.00		A (percent of modification of PIK3CA protein ≥75%)
C=CC(=O)N1CCn2nc(-c3nc(-c4cnc5c(c4)CN(CCO)CC5)c4ccsc4c3-c3c(F)cc(F)cc3OCCOC)cc2[C@H]1C [Compound 1160]	> 7.00		A (percent of modification of PIK3CA protein ≥75%)
C=CC(=O)N1CCn2nc(-c3nc(-c4cc5cnn(C)c5cc4F)c4ccsc4c3-c3c(F)cc(F)cc3OCCO)cc2[C@H]1C [Compound 1162]	> 7.00		A (percent of modification of PIK3CA protein ≥75%)
C=CC(=O)N1CCn2nc(-c3nc(-c4cc5cnn(C)c5cc4F)c4ccsc4c3-c3c(F)cc(F)cc3OCCOC)cc2[C@H]1C [Compound 1164]	> 7.00		A (percent of modification of PIK3CA protein ≥75%)
C=CC(=O)N1CCn2nc(-c3nc(-c4ccc5c(cnn5C)c4)c4ccsc4c3-c3c(F)cc(F)cc3OCCO)cc2[C@@H]1C [Compound 1166]	6.00 to 7.00		D (percent of modification <25%)

Further lines, with some results ahead:

pIC50 (pAKT in BT474 cells)	pIC50 (pAKT in BT474 cells; Homo sapiens, BT-474)	SMILES	% of modification [1]
> 7.00		C=CC(=O)N1CCc2ccc(-c3nc(-c4ccc5c(c4)CNC(=O)C5)c4ccsc4c3-c3c(F)cc(F)cc3OCCOC)cc2C1 [Compound 1108]	A (percent of modification of PIK3CA protein ≥75%)
> 7.00		C=CC(=O)N1CCn2nc(-c3nc(-c4ccc5c(c4)CN(C)CC54CC4)c4ccsc4c3-c3c(F)cc(F)cc3OCCO)cc2C1C (centres unmarked) [Compound 1114]	A (percent of modification of PIK3CA protein ≥75%)
> 7.00		C=CC(=O)N1CCn2nc(-c3nc(-c4ccc5c(c4)CCNC5=O)c4ccsc4c3-c3c(F)cc(F)cc3OC)cc2C1C (centres unmarked) [Compound 1120]	A (percent of modification of PIK3CA protein ≥75%)
< 6.00		C=CC(=O)N1CCn2nc(-c3nc(-c4ccc5c(cnn5C)c4)c4ccsc4c3-c3c(F)cc(F)cc3OCCOC)cc2[C@H]1C [Compound 1131]	D (percent of modification <25%)
> 7.00		C=CC(=O)N1CCn2nc(-c3nc(-c4ccc(C5(C(=O)NC)CC5)cc4)c4ccsc4c3-c3c(F)cc(F)cc3OCCOC)cc2[C@H]1C [Compound 1134]	A (percent of modification of PIK3CA protein ≥75%)
> 7.00		C=CC(=O)N1CCn2nc(-c3nc(-c4ccc5c(cnn5C)c4F)c4ccsc4c3-c3c(F)cc(F)cc3OCCOC)cc2C1C (centres unmarked) [Compound 1144]	A (percent of modification of PIK3CA protein ≥75%)
	> 7.00	C=CC(=O)N1CCn2nc(-c3nc(-c4cnc5c(c4)CN(C)CC5(F)F)c4ccsc4c3-c3c(F)cc(F)cc3OCCOC)cc2[C@H]1C [Compound 1152, 1-((R)-2-((S)-7-(2,4-difluoro-6-(2-methoxyethoxy)phenyl)-4-(8,8-difluoro-6-methyl-5,6,7,8-tetrahydro-1,6-naphthyridin-3-yl)thieno[3,2-c]pyridin-6-yl)-4-methyl-6,7-dihydropyrazolo[1,5-a]pyrazin-5(4H)-yl)prop-2-en-1-one]	A (percent of modification of PIK3CA protein ≥75%)
> 7.00		C=CC(=O)N1CCn2nc(-c3nc(-c4ccc5c(c4)CCC5N(C)C)c4ccsc4c3-c3c(F)cc(F)cc3OCCOC)cc2C1C (centres unmarked) [Compound 1155]	A (percent of modification of PIK3CA protein ≥75%)
> 7.00		C=CC(=O)N1CCn2nc(-c3nc(-c4ccc5c(cnn5C)c4)c4ccsc4c3-c3c(F)cc(F)cc3OCCO)cc2C1C (centres unmarked) [Compound 1156]	D (percent of modification <25%)
> 7.00		C=CC(=O)N1CCn2nc(-c3nc(-c4cnc5c(c4)CN(C)CC5(C)C)c4ccsc4c3-c3c(F)cc(F)cc3OCCOC)cc2[C@H]1C [Compound 1161]	A (percent of modification of PIK3CA protein ≥75%)
> 7.00		C=CC(=O)N1CCn2nc(-c3nc(-c4cnc5c(c4)CN(C)CC54CC4)c4ccsc4c3-c3c(F)cc(F)cc3OCCOC)cc2[C@H]1C [Compound 1163]	A (percent of modification of PIK3CA protein ≥75%)
> 7.00		C=CC(=O)N1CCn2nc(-c3nc(-c4ccc5c(c4)c(F)nn5C)c4ccsc4c3-c3c(F)cc(F)cc3OCCOC)cc2[C@H]1C [Compound 1165]	A (percent of modification of PIK3CA protein ≥75%)
